One assay has as its target T1, c-KIT D816H kinase (Homo sapiens, UniProt P10721, D816H).
T1 construct: The construct contains residues T544-V976 of cKit; GST (N); TEV cleavage site (internal); purchased deCODE Biostructures
In words: c-KIT D816H Kinase Assay. The format is biochemical. Conditions: enzymatic assay, ATP 200 µM. An outline of the steps:
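Mutant cKit enzyme, expressed as a GST-fusion construct carrying an N-terminal tag and TEV site, was mixed with serially diluted compound to start reactions. Activity tracked via NADH consumption, read continuously at 340 nm over 6 hours at 30 °C.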

The target in another assay is T2, c-KIT VVDV kinase (Homo sapiens, UniProt P10721, D816V/DEL559-560).
T2 construct: This construct contains residues T544-V976 of cKit; GST (N); TEV cleavage site (internal); purchased deCODE Biostructures
T2 sequence (P10721 with tags, fused parts or gaps DEL559-560/D816V): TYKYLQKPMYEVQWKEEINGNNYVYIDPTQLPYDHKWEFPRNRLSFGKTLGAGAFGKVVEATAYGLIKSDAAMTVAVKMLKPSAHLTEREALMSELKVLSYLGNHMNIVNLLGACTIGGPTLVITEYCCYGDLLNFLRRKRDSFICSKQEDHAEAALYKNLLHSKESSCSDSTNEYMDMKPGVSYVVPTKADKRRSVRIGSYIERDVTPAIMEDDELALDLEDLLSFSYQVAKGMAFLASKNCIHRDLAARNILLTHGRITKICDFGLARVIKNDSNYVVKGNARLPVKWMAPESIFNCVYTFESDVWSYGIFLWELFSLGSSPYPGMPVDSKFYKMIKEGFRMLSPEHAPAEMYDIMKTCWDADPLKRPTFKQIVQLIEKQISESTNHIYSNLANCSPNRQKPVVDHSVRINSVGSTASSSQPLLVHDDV
Nature of the assay: cKIT-VVDV kinase Assay. The format is biochemical. Conditions: enzymatic assay; V559+V560 deletions and D816V mutation. An outline of the steps:
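Coupled spectrophotometric format: kinase activity followed as NADH oxidation, loss of absorbance at 340 nm. Serially diluted compound mixed with the reaction mixture to start; read continuously for 5 h at 30 °C.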

A further assay has as its target T3, c-KIT V654A kinase (Homo sapiens, UniProt P10721, V654A).
T3 construct: residues T544-V976 with N-terminal GST fusion; purchased deCODE Biostructures
Nature of the assay: c-KIT V654A Kinase Assay. The format is biochemical. Conditions: enzymatic assay, ATP 200 µM. An outline of the steps: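 Kinase activity tracked by coupled NADH consumption, monitored continuously at 340 nm over 6 h at 30 °C after serially diluted compound was mixed in to start inhibition. Enzyme used was a GST-fused, N-terminally tagged cKIT T544–V976 construct with a TEV cleavage site.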

For a further assay, the system named is GIST T1 cells. In words: GIST T1 Cell Proliferation Assay. The assay is classed as cell-based. The settings on record: Homo sapiens, GISTT1, 72 h, 68 hours + 4 hours resazurin.
A further assay concerns the target T4, Phospho-KIT (Tyr719) (Homo sapiens, UniProt P10721, DEL560-578).
T4 construct: endogenous in cells; host or cells: GIST T1
Nature of the assay: GIST T1 KIT Western Blot. The assay is classed as cell-based. The settings on record: GIST T1 cells, 4 hours, serum-free medium; read-out: pKIT suppression by western blot analysi GIST T1. The method, then:
GIST48, GIST430, and GIST882 cells were obtained from J. Fletcher (Brigham and Women's Hospital, Boston, MA). GIST T1 cells were obtained from B. Rubin (Cleveland Clinic, Cleveland, OH) and Professor Takahiro Taguchi (Kochi Medical School, Nankoku, Kochi, Japan). […] GIST430 cells were grown in Ham's F10 medium supplemented with 15% characterized fetal bovine serum (Invitrogen, Carlsbad, CA), 30 mg/L bovine pituitary extract (BD Biosciences, San Jose, CA), 0.5% Mito+ serum extender (BD Biosciences, San Jose, CA), 1 unit/mL penicillin G, 1 µg/ml streptomycin, and 0.29 mg/mL L-glutamine at 37 °C, 5%CO2, 95% humidity. GIST T1 cells were grown in DMEM medium supplemented with 10% characterized fetal bovine serum (Invitrogen, Carlsbad, CA), 1 unit/mL penicillin G, 1 µg/ml streptomycin, and 0.29 mg/mL L-glutamine at 37 °C, 5% CO2, and 95% humidity. Cells were allowed to expand until reaching 70-95% confluence at which point they were subcultured or harvested for assay use.
One hundred twenty-five thousand cells were added per well in a 24-well tissue-culture treated plate. Cells were then incubated overnight at 37°C, 5% CO2, 95% humidity. Medium was aspirated, cells were washed with PBS, and serum-free DMEM medium was added. A serial dilution of test compound was added to plates containing cells and plates were incubated for 4 hours at 37°C, 5% CO2, 95% humidity. Cells were washed with PBS, then lysed. Cell lysates were separated by SDS-PAGE and transferred to PVDF. Phospho-KIT (Tyr719) was detected using an antibody from Cell Signaling Technology (Beverly, MA), ECL Plus detection reagent (GE Healthcare, Piscataway, NJ) and a Molecular Devices Storm 840 phosphorimager in fluorescence mode. Blots were stripped and probed for total KIT using an antibody from Santa Cruz Biotech (Santa Cruz, CA). IC50 values were calculated using Prism software (Graphpad, San Diego, CA).
On the technique in general: In western blotting, separated proteins are transferred to a membrane and probed.

T3 sequence (P10721 544-976 V654A): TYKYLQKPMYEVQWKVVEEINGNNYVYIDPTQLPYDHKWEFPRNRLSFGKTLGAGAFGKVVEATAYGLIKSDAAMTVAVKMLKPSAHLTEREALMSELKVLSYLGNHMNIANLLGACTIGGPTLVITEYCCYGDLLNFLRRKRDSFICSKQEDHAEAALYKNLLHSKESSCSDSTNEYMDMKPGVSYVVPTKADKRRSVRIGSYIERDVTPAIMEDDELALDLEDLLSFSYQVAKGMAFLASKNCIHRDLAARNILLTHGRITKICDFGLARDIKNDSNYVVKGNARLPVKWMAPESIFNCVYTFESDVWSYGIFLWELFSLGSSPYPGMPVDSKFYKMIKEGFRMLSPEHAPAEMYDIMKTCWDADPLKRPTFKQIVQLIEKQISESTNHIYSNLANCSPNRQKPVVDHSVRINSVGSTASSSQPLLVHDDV
T1 sequence (P10721 544-976 D816H): as the sequence (P10721 544-976 V654A) above, with A111V, D273H counted along it
T4 sequence (P10721 with tags, fused parts or gaps DEL560-578): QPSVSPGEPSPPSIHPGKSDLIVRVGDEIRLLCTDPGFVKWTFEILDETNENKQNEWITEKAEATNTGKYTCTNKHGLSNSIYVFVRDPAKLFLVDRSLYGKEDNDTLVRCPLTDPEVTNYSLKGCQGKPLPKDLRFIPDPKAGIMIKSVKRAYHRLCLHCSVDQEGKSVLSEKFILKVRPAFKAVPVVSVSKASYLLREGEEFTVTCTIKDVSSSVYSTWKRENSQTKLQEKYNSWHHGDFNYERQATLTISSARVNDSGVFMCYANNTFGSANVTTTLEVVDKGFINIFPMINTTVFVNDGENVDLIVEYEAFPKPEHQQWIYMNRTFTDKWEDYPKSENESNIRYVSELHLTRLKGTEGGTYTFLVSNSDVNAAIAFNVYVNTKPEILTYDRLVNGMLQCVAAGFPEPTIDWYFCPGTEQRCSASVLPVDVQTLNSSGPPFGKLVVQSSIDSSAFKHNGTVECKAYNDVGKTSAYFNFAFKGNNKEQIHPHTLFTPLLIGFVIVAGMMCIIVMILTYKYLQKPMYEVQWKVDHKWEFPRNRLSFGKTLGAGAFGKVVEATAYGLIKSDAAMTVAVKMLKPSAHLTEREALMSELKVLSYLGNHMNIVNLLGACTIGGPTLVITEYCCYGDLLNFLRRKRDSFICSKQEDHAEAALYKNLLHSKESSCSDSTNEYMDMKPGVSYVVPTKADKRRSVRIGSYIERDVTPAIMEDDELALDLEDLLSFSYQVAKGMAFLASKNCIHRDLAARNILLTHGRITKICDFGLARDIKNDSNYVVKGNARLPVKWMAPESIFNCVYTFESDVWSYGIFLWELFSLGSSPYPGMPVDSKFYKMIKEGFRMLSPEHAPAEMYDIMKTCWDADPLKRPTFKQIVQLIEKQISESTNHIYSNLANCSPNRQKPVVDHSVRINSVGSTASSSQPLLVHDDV

Regarding `CCn1c(=O)c(-c2cc(NC(=O)Nc3cccc(F)c3F)c(F)cc2Cl)cc2cnc(NC)cc21` [Example 4, 1-(4-chloro-5-(1-ethyl-7-(methylamino)-2-oxo-1,2-dihydro-1,6-naphthyridin-3-yl)-2-fluorophenyl)-3-(2,3-difluorophenyl)urea], the IC50 at c-KIT D816H kinase, on c-KIT VVDV kinase, at c-KIT V654A kinase and in the assay on GIST T1 cells was below 0.01 µM each time.
In the case of `CCn1c(=O)c(-c2cc(NC(=O)Nc3cccc(F)c3)c(F)cc2Cl)cc2cnc(N)cc21` [Example 20, 1-(5-(7-amino-1-ethyl-2-oxo-1,2-dihydro-1,6-naphthyridin-3-yl)-4-chloro-2-fluorophenyl)-3-(3-fluorophenyl)urea], the IC50 at c-KIT D816H kinase was below 0.01 µM; on Phospho-KIT (Tyr719), below 0.01 µM; at c-KIT VVDV kinase, below 0.01 µM; at c-KIT V654A kinase it was 0.01 to 0.1 µM.
Turning to `CCn1c(=O)c(-c2cc(NC(=O)Nc3ccccc3F)c(F)cc2Cl)cc2cnc(NC)cc21` [Example 25, 1-[4-chloro-5-(1-ethyl-7-methylamino-2-oxo-1,2-dihydro-[1,6]naphthyridin-3-yl)-2-fluoro-phenyl]-3-(2-fluoro-phenyl)-urea], the IC50 at c-KIT D816H kinase is 0.01 to 0.1 µM; at c-KIT VVDV kinase, below 0.01 µM; at c-KIT V654A kinase, below 0.01 µM; with GIST T1 cells it was below 0.01 µM.
Regarding `CCn1c(=O)c(-c2cc(NC(=O)Nc3ccccc3)c(F)cc2Cl)cc2cnc(NCCOC)cc21` [Example 27, 1-(4-chloro-5-(1-ethyl-7-(2-methoxyethylamino)-2-oxo-1,2-dihydro-1,6-naphthyridin-3-yl)-2-fluorophenyl)-3-phenylurea], the IC50 at c-KIT D816H kinase, at c-KIT VVDV kinase and at c-KIT V654A kinase was 0.01 to 0.1 µM each time.
Turning to `CCn1c(=O)c(-c2cc(NC(=O)Nc3ccccc3)c(F)cc2Br)cc2cnc(NCCOC)cc21` [Example 51, 1-(4-bromo-5-(1-ethyl-7-(2-methoxyethylamino)-2-oxo-1,2-dihydro-1,6-naphthyridin-3-yl)-2-fluorophenyl)-3-phenylurea], the figures for the IC50 on c-KIT VVDV kinase, at c-KIT V654A kinase and with GIST T1 cells were 0.1 to 1 µM, 0.01 to 0.1 µM and below 0.01 µM, respectively.
Consider `CCn1c(=O)c(-c2cc(NC(=O)Nc3cc(F)cc(F)c3)c(F)cc2Cl)cc2cnc(NC)cc21` [Example 55, 1-(4-chloro-5-(1-ethyl-7-(methylamino)-2-oxo-1,2-dihydro-1,6-naphthyridin-3-yl)-2-fluorophenyl)-3-(3,5-difluorophenyl)urea], for which the IC50 was below 0.01 µM on c-KIT D816H kinase, 0.01 to 0.1 µM at c-KIT VVDV kinase, 0.01 to 0.1 µM at c-KIT V654A kinase and below 0.01 µM in the assay on GIST T1 cells.
As to `CCn1c(=O)c(-c2cc(NC(=O)Nc3ccccc3)c(F)cc2Br)cc2cnc(N)cc21` [Example 57, 1-(5-(7-amino-1-ethyl-2-oxo-1,2-dihydro-1,6-naphthyridin-3-yl)-4-bromo-2-fluorophenyl)-3-phenylurea], the IC50 is 0.01 to 0.1 µM at c-KIT D816H kinase, below 0.01 µM at Phospho-KIT (Tyr719), 0.01 to 0.1 µM at c-KIT V654A kinase and below 0.01 µM with GIST T1 cells.
As for `CCn1c(=O)c(-c2cc(NC(=O)Nc3cccc(F)c3)c(F)cc2C)cc2cnc(N)cc21` [Example 58, 1-(5-(7-amino-1-ethyl-2-oxo-1,2-dihydro-1,6-naphthyridin-3-yl)-2-fluoro-4-methylphenyl)-3-(3-fluorophenyl)urea], the IC50 at c-KIT D816H kinase, at c-KIT V654A kinase and in the assay on GIST T1 cells was below 0.01 µM throughout.
With `CCn1c(=O)c(-c2cc(NC(=O)Nc3cc(F)cc(F)c3)c(F)cc2C)cc2cnc(NC)cc21` [Example 60, 1-(3,5-difluorophenyl)-3-(5-(1-ethyl-7-(methylamino)-2-oxo-1,2-dihydro-1,6-naphthyridin-3-yl)-2-fluoro-4-methylphenyl)urea], the IC50 on c-KIT D816H kinase, on c-KIT VVDV kinase, at c-KIT V654A kinase and with GIST T1 cells was 0.01 to 0.1 µM throughout.
Regarding `CCn1c(=O)c(-c2cc(NC(=O)Nc3cc(F)ccc3F)c(F)cc2C)cc2cnc(NC)cc21` [Example 61, 1-(2,5-difluorophenyl)-3-(5-(1-ethyl-7-(methylamino)-2-oxo-1,2-dihydro-1,6-naphthyridin-3-yl)-2-fluoro-4-methylphenyl)urea], the IC50 at c-KIT D816H kinase is 0.1 to 1 µM; at c-KIT VVDV kinase it was below 0.01 µM; on c-KIT V654A kinase, 0.01 to 0.1 µM; with GIST T1 cells it was below 0.01 µM.
`CCn1c(=O)c(-c2cc(NC(=O)Nc3cc(F)cc(F)c3)c(F)cc2Cl)cc2cnc(NC(C)=O)cc21` [Example 67, N-(3-(2-chloro-5-(3-(3,5-difluorophenyl)ureido)-4-fluorophenyl)-1-ethyl-2-oxo-1,2-dihydro-1,6-naphthyridin-7-yl)acetamide]: the IC50 is below 0.01 µM on c-KIT D816H kinase, 0.01 to 0.1 µM on c-KIT V654A kinase and below 0.01 µM with GIST T1 cells.
In the case of `CCn1c(=O)c(-c2cc(NC(=O)Nc3ccccc3)c(F)cc2Cl)cc2cnc(NC(=O)OC)cc21` [Example 73, methyl (3-(2-chloro-4-fluoro-5-(3-phenylureido)phenyl)-1-ethyl-2-oxo-1,2-dihydro-1,6-naphthyridin-7-yl)carbamate], the IC50 was 0.01 to 0.1 µM on c-KIT D816H kinase, below 0.01 µM at c-KIT VVDV kinase, 0.01 to 0.1 µM on c-KIT V654A kinase and 0.01 to 0.1 µM in the assay on GIST T1 cells.
In the case of `CNc1cc2c(cn1)cc(-c1cc(NC(=O)Nc3cccc(F)c3)c(F)cc1Cl)c(=O)n2C(C)C` [Example 77, 1-(4-chloro-2-fluoro-5-(1-isopropyl-7-(methylamino)-2-oxo-1,2-dihydro-1,6-naphthyridin-3-yl)phenyl)-3-(3-fluorophenyl)urea], the IC50 on c-KIT D816H kinase was 0.01 to 0.1 µM; at c-KIT V654A kinase, 0.01 to 0.1 µM; with GIST T1 cells it was below 0.01 µM.
Consider `CCn1c(=O)c(-c2cc(NC(=O)Nc3ccccc3)c(F)cc2Cl)cc2cnc(NC(=O)N3CC(O)C3)cc21` [Example 81, N-(3-(2-chloro-4-fluoro-5-(3-phenylureido)phenyl)-1-ethyl-2-oxo-1,2-dihydro-1,6-naphthyridin-7-yl)-3-hydroxyazetidine-1-carboxamide], for which the results for the IC50 at c-KIT D816H kinase, at c-KIT V654A kinase and in the assay on GIST T1 cells were below 0.01 µM, 0.01 to 0.1 µM and below 0.01 µM, respectively.
As for `CCn1c(=O)c(-c2cc(NC(=O)Nc3ccc(F)c(CN4CCN(C)CC4)c3)c(F)cc2Cl)cc2cnc(NC)cc21` [Example 87, 1-(4-chloro-5-(1-ethyl-7-(methylamino)-2-oxo-1,2-dihydro-1,6-naphthyridin-3-yl)-2-fluorophenyl)-3-(4-fluoro-3-((4-methylpiperazin-1-yl)methyl)phenyl)urea], the IC50 on c-KIT D816H kinase is 0.01 to 0.1 µM; on c-KIT V654A kinase, 0.1 to 1 µM; with GIST T1 cells, 0.01 to 0.1 µM.
`CCn1c(=O)c(-c2cc(NC(=O)Nc3ccccc3)c(F)cc2C)cc2cnc(NC(=O)N(C)C)cc21` [Example 101, 3-(1-ethyl-3-(4-fluoro-2-methyl-5-(3-phenylureido)phenyl)-2-oxo-1,2-dihydro-1,6-naphthyridin-7-yl)-1,1-dimethylurea]: the values for the IC50 at c-KIT D816H kinase, at c-KIT V654A kinase and in the assay on GIST T1 cells were 0.01 to 0.1 µM, 0.01 to 0.1 µM and below 0.01 µM, respectively.
`CCn1c(=O)c(-c2cc(NC(=O)Nc3ccccc3)c(F)cc2Cl)cc2cnc(NC(=O)N3CC(N(C)C)C3)cc21` [Example 102, N-(3-(2-chloro-4-fluoro-5-(3-phenylureido)phenyl)-1-ethyl-2-oxo-1,2-dihydro-1,6-naphthyridin-7-yl)-3-(dimethylamino)azetidine-1-carboxamide]: the IC50 was 0.01 to 0.1 µM on c-KIT D816H kinase, 0.01 to 0.1 µM on c-KIT V654A kinase and below 0.01 µM with GIST T1 cells.

Values taken from patent EP3722296B1, “DIHYDRONAPHTHYRIDINES AND RELATED COMPOUNDS USEFUL AS KINASE INHIBITORS FOR THE TREATMENT OF PROLIFERATIVE DISEASES” (Deciphera Pharmaceuticals, LLC, priority 2012, dated 2013).
